From ChEMBL document CHEMBL5725908, “Tricyclic DLK inhibitors and uses thereof” (2018)

molecular target: T1, Mitogen-activated protein kinase kinase kinase 12 (Homo sapiens, UniProt Q12852); assay: DLK TR-FRET Inhibition Assay: DLK kinase reactions (20 μL) containing 5 nM N-terminally GST-tagged DLK (catalytic domain amino acid 1-520) (Carna Bioscience), 40 nM N-terminally HIS tagged MKK4 K131M substrate, and 30 μM ATP in kinase reaction buffer (50 mM HEPES, pH 7.5, 0.01% Triton X-100, 0.01% Bovine γ-Globulins, 2 mM DTT, 10 mM MgCl2 and 1 mM EGTA), and testing compound 1:3 serial diluted starting at 20 uM were incubated at ambient temperature for 60 minutes in 384 well OptiPlate (Perkin Elmer). To quench kinase reactions and detect phosphorylated MKK4, 15 μL of TR-FRET antibody mixture containing 2 nM anti-phosphorylated MKK4 labeled with Europium cryptate (Cisbio) and 23 nM anti-HIS labeled with D2 (Cisbio) in detection buffer (25 mM Tris pH 7.5, 100 mM NaCl, 100 mM EDTA, 0.01% Tween-20, and 200 mM KF) was added to the reaction mixture. The detection mixture was incubated for 3 hours at ambient temperature and the TR-FRET was detected with an EnVision multilabel plate reader (Perkin-Elmer) using the LANCE/DELFIA Dual Enh label from Perkin-Elmer (excitation filter: UV2 (TRF) 320 and emission filters: APC 665 and Europium 615).
T1 sequence (Q12852 whole entry): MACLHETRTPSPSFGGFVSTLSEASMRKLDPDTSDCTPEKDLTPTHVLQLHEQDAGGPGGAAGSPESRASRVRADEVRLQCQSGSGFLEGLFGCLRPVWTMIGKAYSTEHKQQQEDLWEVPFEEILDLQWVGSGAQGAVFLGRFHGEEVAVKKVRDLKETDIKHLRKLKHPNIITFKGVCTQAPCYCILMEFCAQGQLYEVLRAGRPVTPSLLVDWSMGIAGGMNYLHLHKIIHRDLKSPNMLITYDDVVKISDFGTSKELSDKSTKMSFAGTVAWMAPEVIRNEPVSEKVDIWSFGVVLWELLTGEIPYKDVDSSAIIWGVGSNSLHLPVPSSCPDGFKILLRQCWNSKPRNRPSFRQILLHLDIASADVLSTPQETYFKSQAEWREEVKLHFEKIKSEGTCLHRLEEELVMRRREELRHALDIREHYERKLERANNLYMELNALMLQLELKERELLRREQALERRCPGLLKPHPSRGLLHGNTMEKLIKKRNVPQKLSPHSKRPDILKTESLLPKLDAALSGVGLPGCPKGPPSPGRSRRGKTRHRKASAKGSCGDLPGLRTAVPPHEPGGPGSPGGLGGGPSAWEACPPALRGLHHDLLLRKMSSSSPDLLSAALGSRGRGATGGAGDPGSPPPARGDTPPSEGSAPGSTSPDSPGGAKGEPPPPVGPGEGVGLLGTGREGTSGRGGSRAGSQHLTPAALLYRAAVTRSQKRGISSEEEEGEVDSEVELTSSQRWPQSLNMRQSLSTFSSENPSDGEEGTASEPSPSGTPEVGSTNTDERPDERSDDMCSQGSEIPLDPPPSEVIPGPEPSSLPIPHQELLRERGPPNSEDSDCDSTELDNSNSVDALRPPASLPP

Point of comparison: Cc1c[nH]c2ncc(-c3nc(N4CC5COCC5C4)c4nc5n(c4n3)CCOC5(C)C)cc12 (centres undefined), Ki 46.3 nM. Against it:
- CC(C)n1nccc1-c1nc(-c2cnc(N)nc2)nc2c1nc1n2CCOC1(C)C — 30-fold higher, 1400 nM
- COC1C2CCC1N(c1nc(-c3cnc(N)nc3)nc3c1nc1n3CCOC1(C)C)C2 (centres undefined) — 4.8-fold higher, 223 nM
- CC1(C)OCCn2c1nc1c(N3CC4COCC4C3)nc(-c3cnc(N)nc3)nc12 (centres undefined) — 21-fold higher, 995 nM
